Measured values as given in patent publication US12404289B2 (Gilead Sciences, Inc., priority 2020, dated 2025).

Experiments:
[1] = CC50 assay (cytopathology in HEp-2 cells); type: cell-based; conditions: human, HEp-2 cells, 4 days, CellTiter-Glo; Table 1; read-out: RSV CC50
Method: The cytopathology of compounds in HEp-2 cells is determined in the following manner. HEp-2 cells are suspended in DMEM+GlutaMAX (supplemented with 10% FBS and 1% Penicillin/Streptomycin) and seeded into 96 well plates (3×10^3/well). After a 4-hour incubation at 37° C.+5% CO2, three-fold serial dilutions of compounds are added to each well using an HP D300e digital dispenser. The cells are then incubated for 4 days at 37° C. and 5% CO2. The final volume in each well is 200 μL. Untreated wells are included as controls for 100% cell viability, while compounds treated with 5 uM puromycin are included as controls for 0% viability. Following the incubation, 100 μL of culture supernatant is removed from each well and replaced with 100 μL of CellTiter-Glo reagent (Promega, Madison, WI, Cat #G7573). The plates are then rocked for 2 minutes followed by a 10-minute incubation at 25° C. Compound-induced cytopathic effect is then assessed by measuring luminescence signal using and Envision plate reader. Values are normalized to the untreated DMSO and puromycin-treated controls (as 100% and 0% viability, respectively) and data is fit using non-linear regression analysis using XLfit4. The CC50 value for each compound is then determined as the concentration reducing cell viability by 50%.

[2] = test system: Respiratory syncytial virus (RSV) strain A2; experiment: RSV antiviral assay (HEp-2, 96 well); type: cell-based; conditions: human respiratory syncytial virus, HEp-2, 96 h, read-out: EC50-RSV-HEP-2-96, HEp-2 cells, RSV A2, MOI=4, 4 days, 96 well, CellTiter-Glo; Table 1

SMILES | CC50 at 4 days [1] [nM] | EC50 [2] [nM]
CCC(CC)COC(=O)[C@H](C)NP(=O)(OC[C@H]1O[C@@](C#N)(c2ccc3c(N)ncnn23)[C@H](OC(=O)C(C)C)[C@@H]1OC(=O)C(C)C)Oc1c(C)cccc1C (stereo partly drawn) [Example 20, (2R,3R,4R,5R)-2-(4-aminopyrrolo[2,1-f][1,2,4]triazin-7-yl)-2-cyano-5-((((2,6-dimethylphenoxy)(((S)-1-(2-ethylbutoxy)-1-oxopropan-2-yl)amino)phosphoryl)oxy)methyl)tetrahydrofuran-3,4-diyl bis(2-methylpropanoate)] | 5180 | 444
CCC(=O)O[C@H]1[C@@H](OC(=O)CC)[C@](C#N)(c2ccc3c(N)ncnn23)O[C@@H]1CO[P@@](=O)(N[C@@H](C)C(=O)OC(C)C)Oc1ccccc1 [Example 8, (2R,3R,4R,5R)-2-(4-aminopyrrolo[2,1-f][1,2,4]triazin-7-yl)-2-cyano-5-((((S)—(((S)-1-isopropoxy-1-oxopropan-2-yl)amino)(phenoxy)phosphoryl)oxy)methyl) tetrahydrofuran-3,4-diyl Dipropionate] | > 40000 | 156
CCC(CC)COC(=O)[C@H](C)NP(=O)(OC[C@H]1O[C@@](C#N)(c2ccc3c(N)ncnn23)[C@H](O)[C@@H]1O)Oc1c(C)cccc1C (stereo partly drawn) [Example 19, 2-Ethylbutyl ((((2R,3S,4R,5R)-5-(4-aminopyrrolo[2,1-f][1,2,4]triazin-7-yl)-5-cyano-3,4-dihydroxytetrahydrofuran-2-yl)methoxy)(2,6-dimethylphenoxy)phosphoryl)-L-alaninate] | 26500 | 687
CCOC(=O)[C@H](C)N[P@](=O)(OC[C@H]1O[C@@](C#N)(c2ccc3c(N)ncnn23)[C@H](OC(=O)C(C)C)[C@@H]1OC(=O)C(C)C)Oc1ccccc1 [Example 10, (2R,3R,4R,5R)-2-(4-aminopyrrolo[2,1-f][1,2,4]triazin-7-yl)-2-cyano-5-((((((S)-1-ethoxy-1-oxopropan-2-yl)amino)(phenoxy)phosphoryl)oxy)methyl)tetrahydrofuran-3,4-diyl bis(2-methylpropanoate)] | 10300 | 52.9
COC(=O)[C@H](C)N[P@](=O)(OC[C@H]1O[C@@](C#N)(c2ccc3c(N)ncnn23)[C@H](OC(=O)C(C)C)[C@@H]1OC(=O)C(C)C)Oc1ccccc1 [Example 4, (2R,3R,4R,5R)-2-(4-aminopyrrolo[2,1-f][1,2,4]triazin-7-yl)-2-cyano-5-((((S)—(((S)-1-methoxy-1-oxopropan-2-yl)amino)(phenoxy)phosphoryl)oxy)methyl)tetrahydrofuran-3,4-diyl bis(2-methylpropanoate)] | 5580 | 93.9
CCC(CC)COC(=O)[C@H](C)NP(=O)(OC[C@H]1O[C@@](C#N)(c2ccc3c(N)ncnn23)[C@H](OC(=O)C(C)C)[C@@H]1OC(=O)C(C)C)Oc1cc(C)ccc1C(C)C (stereo partly drawn) [Example 27, (2R,3R,4R,5R)-2-(4-Aminopyrrolo[2,1-f][1,2,4]triazin-7-yl)-2-cyano-5-((((((S)-1-(2-ethylbutoxy)-1-oxopropan-2-yl)amino)(2-isopropyl-5-methylphenoxy)phosphoryl)oxy)methyl)tetrahydrofuran-3,4-diyl bis(2-methylpropanoate)] | 5860 | 958
COC(=O)[C@H](C)N[P@](=O)(OC[C@H]1O[C@@](C#N)(c2ccc3c(N)ncnn23)[C@H](OC(C)=O)[C@@H]1OC(C)=O)Oc1ccccc1 [Example 6, (2R,3R,4R,5R)-2-(4-aminopyrrolo[2,1-f][1,2,4]triazin-7-yl)-2-cyano-5-((((S)—(((S)-1-methoxy-1-oxopropan-2-yl)amino)(phenoxy)phosphoryl)oxy)methyl) tetrahydrofuran-3,4-diyl Diacetate] | 26400 | 193
